The results in this text go back to patent US11707557B2, “Compositions and devices incorporating water-insoluble therapeutic agents and methods of the use thereof” (COOK MEDICAL TECHNOLOGIES LLC, priority 2014, dated 2023).

SMILES strings stand for the structures.

In one data set the test system is fresh rat aorta artery. The data set is described as follows: Paclitaxel uptake into artery tissue from coated balloon catheter. Particulars: for available paclitaxel taken up by the artery / available paclitaxel washed out from the artery: ignoring catheter residual and gloves wash. The data set is classed as in vitro ADME. Here is the method:
A 2-3 cm strip of fresh rat aorta artery was placed over a 200 microliter pipette tip and fed onto the deflated balloon catheter to mimic the feeding of the balloon into the blood vessel. The balloon was then inflated and the system was left for 2 minutes at 37° C. in a bath of Hanks buffered salt solution (HBSS). The balloon was then deflated and 300 microliters of HBSS pipetted into the artery and the wash out collected in a centrifuge tube. This wash step was repeated three times. Because the handler's gloves were moist and had contacted the balloon (and therefore absorbed some EGCG/drug) the gloves fingers were washed extensively in 100 ml of HBSS.
The aorta tissue was placed in 500 microliters of tissue solubilizer and left at 60° C. for 4 hours to digest. The contents were then placed in a scintillation counter. The deployed catheter balloon was observed after the procedure. Some of the balloon had not deployed (the balloon was tight in the aorta and not fully inflated) and traces of the reddish colored EGCG/drug could be observed in the folds. […] The catheter balloon was then inflated in 5 ml of acetonitrile to recover the undissolved EGCG and measured by scintillation counting. All other fractions (aorta wash and gloves wash were also counted. These four fractions (aorta, gloves, catheter residual and aorta wash) accounted for all drug and the total scintillation count form everything was taken and 100% of the applied drug.
A balloon catheter was inflated and revolved along its horizontal axis. The drug/EGCG solution was slowly pipetted onto the balloon using 25 microliters at a time and dried with gentle heat from an electric blowdryer. A 2-3 cm strip of fresh rat aorta artery was placed over a 200 microliter pipette tip and fed onto the deflated balloon catheter to mimic the feeding of the balloon into the blood vessel. The balloon was then inflated and the system was sonicated for 2 minutes at 37° C. in Hanks buffered salt solution (HBSS) (4 MHz, 30 watts/cm2). The balloon was then deflated and 300 microl of (HBSS) was pipetted into the artery and the wash out collected in a centrifuge tube. This wash step was repeated three times. Samples were collected as in the previous example.
A balloon catheter was inflated and revolved along its horizontal axis. The drug/diblock solution was slowly pipetted onto the balloon using 25 microliters at a time and dried with gentle heat from an electric blowdryer. […] A 2-3 cm strip of fresh rat aorta artery was placed over a 200 ul pipette tip and fed onto the deflated balloon catheter to mimic the feeding of the balloon into the blood vessel. The system was then immersed in Hanks buffered salt solution (HBSS) at 37° C. for 2 minutes.
A balloon catheter was inflated and revolved along its horizontal axis. The drug/tannic acid solution was slowly pipetted onto the balloon using 25 microliters at a time and dried with gentle heat from an electric blowdryer.

Data set [1] has as its system canine kidney (mdck) cells. The data set is described as follows: Uptake of paclitaxel into mdck cells with or without EGCG. It is filed as cell-based.

In the case of `CC(=O)O[C@H]1C(=O)[C@@]2(C)[C@H]([C@H](OC(=O)c3ccccc3)[C@]3(O)C[C@H](OC(=O)[C@H](O)[C@@H](NC(=O)c4ccccc4)c4ccccc4)C(C)=C1C3(C)C)[C@]1(OC(C)=O)CO[C@@H]1C[C@@H]2O` [paclitaxel], the “total paclitaxel associated with the artery” value with fresh rat aorta artery (EGCG coating (30 mg EGCG, 300 microgram drug), 2 minutes 37° C.) is “More than 50%”; in the data set on fresh rat aorta artery (EGCG coating with ultrasound (4 MHz, 30 watts/cm2), 2 minutes), “More than 50%”; with fresh rat aorta artery (diblock copolymer coating (6 mg), 2 minutes), “Approximately 10%”; in the data set on fresh rat aorta artery (tannic acid coating), “Approximately 40%”. Also, the “total paclitaxel washed out of the artery” value in the data set on fresh rat aorta artery (EGCG coating with ultrasound) was 2%; with fresh rat aorta artery (EGCG coating, 2 minutes 37° C.) it was 2%; with fresh rat aorta artery (diblock copolymer coating), “less than 2%”; with fresh rat aorta artery (tannic acid coating) it was “less than 1%”. Further, the “available paclitaxel taken up by the artery” value in the data set on fresh rat aorta artery (EGCG coating with ultrasound) and in the data set with fresh rat aorta artery (EGCG coating) was “approximately 95%” each time. The “available paclitaxel washed out from the artery” value with fresh rat aorta artery (EGCG coating with ultrasound) and in the data set on fresh rat aorta artery (EGCG coating) was “less than 5%” each time. For the same molecule, the “residual on the catheter” value with fresh rat aorta artery (tannic acid coating) was “approximately 29%”. In the data set with fresh rat aorta artery (tannic acid coating, ignoring drug on catheter and gloves), the “available drug transferred to the tissues” value is given as “over 95%”. The “paclitaxel level in cells” value is recorded as not above 2000 pg/mg in data set [1] (co-incubated with EGCG at 50 microg/ml) and “approximately 200 pg/mg cellular protein” in data set [1] (paclitaxel alone). Besides, the “increase in drug uptake with EGCG” value in data set [1] (with EGCG versus alone) was 10 fold.
